In ChEMBL document CHEMBL1128905, “Synthesis and biological activity of 5-heteroaryl benzodiazepines: analogues of YM022” (Bioorg Med Chem Lett, 1996):

Assays:
[1] = biological target: T1, Gastrin/cholecystokinin type B receptor (Rattus norvegicus, UniProt P30553); test: Binding affinity towards gastrin/Cholecystokinin type B receptor from rat brain using [125I]CCK-8 as the radioligand
T1 sequence (P30553 whole entry): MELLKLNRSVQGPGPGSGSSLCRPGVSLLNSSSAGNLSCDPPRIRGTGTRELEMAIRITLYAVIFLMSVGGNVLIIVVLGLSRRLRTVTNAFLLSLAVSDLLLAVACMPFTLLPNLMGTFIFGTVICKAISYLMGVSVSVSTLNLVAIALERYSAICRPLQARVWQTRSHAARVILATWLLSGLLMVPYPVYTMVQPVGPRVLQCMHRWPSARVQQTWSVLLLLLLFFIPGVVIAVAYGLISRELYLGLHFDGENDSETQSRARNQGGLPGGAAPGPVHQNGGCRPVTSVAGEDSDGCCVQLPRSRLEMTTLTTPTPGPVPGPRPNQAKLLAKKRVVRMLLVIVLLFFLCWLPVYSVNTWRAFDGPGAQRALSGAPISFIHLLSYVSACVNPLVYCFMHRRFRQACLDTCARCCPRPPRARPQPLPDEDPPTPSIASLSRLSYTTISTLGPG

[2] = biological target: T2, Cholecystokinin receptor type A (Rattus norvegicus, UniProt P30551); test: Binding affinity towards Cholecystokinin type A receptor from rat pancreas using [I125]-L-364,718 as the radioligand
T2 sequence (P30551 whole entry): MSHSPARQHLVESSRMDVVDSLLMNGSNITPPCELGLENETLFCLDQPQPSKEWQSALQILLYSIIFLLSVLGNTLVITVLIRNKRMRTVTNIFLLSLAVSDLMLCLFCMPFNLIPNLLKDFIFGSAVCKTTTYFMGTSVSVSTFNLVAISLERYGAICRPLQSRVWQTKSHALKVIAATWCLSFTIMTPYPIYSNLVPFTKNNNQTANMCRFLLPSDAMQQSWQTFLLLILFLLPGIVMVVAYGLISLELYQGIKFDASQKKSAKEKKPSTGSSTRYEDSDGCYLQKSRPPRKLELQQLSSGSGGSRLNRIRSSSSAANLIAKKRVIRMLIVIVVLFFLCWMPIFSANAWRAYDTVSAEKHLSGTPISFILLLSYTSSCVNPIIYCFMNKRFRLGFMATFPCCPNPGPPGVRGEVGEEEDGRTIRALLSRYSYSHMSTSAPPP

Rattus norvegicus [3] = test: Compound was evaluated for in vivo inhibition of pentagastrin induced gastric acid secretion in rats by 50% after iv administration; type: functional; conditions: Stomach
Rattus norvegicus [4] = test: Compound was evaluated for in vivo inhibition of pentagastrin induced gastric acid secretion in rats after iv administration at dose of 0.1 umol/kg; type: functional; conditions: Stomach

`Cc1cccc(NC(=O)NC2N=C(c3ccccn3)c3ccccc3N(CC(=O)C(C)(C)C)C2=O)c1` (centres undefined) showed an IC50 [1] of 0.44 nM, an IC50 [2] of 470 nM and an ED50 (Rattus norvegicus [3]) of 0.016 µmol/kg.
`Cc1cccc(NC(=O)NC2N=C(c3cccnc3)c3ccccc3N(CC(=O)C3CCCC3)C2=O)c1` (centres undefined) showed an IC50 [1] of 1.6 nM, an IC50 [2] of 80 nM and an inhibition in vivo at 0.1 µmol/kg (Rattus norvegicus [4]) of 34%.
Work on `Cc1cccc(NC(=O)NC2N=C(c3nccn3C)c3ccccc3N(CC(=O)C(C)(C)C)C2=O)c1` (centres undefined) yielded an IC50 [1] of 4.52 nM, an IC50 [2] of 844 nM and an inhibition in vivo at 0.1 µmol/kg (Rattus norvegicus [4]) of 49%.
Compound `Cc1cccc(NC(=O)NC2N=C(c3cnccn3)c3ccccc3N(CC(=O)C(C)(C)C)C2=O)c1` (centres undefined) has an IC50 [1] of 0.88 nM, an IC50 [2] of 1360 nM and an inhibition in vivo at 0.1 µmol/kg (Rattus norvegicus [4]) of 55%.
Work on `Cc1cccc(NC(=O)NC2N=C(c3ccccc3)c3ccccc3N(CC(=O)C(C)(C)C)C2=O)c1` (centres undefined) yielded an IC50 [2] of 111 nM.
In the case of `Cc1cccc(NCNC2N=C(c3nccs3)c3ccccc3N(CC(=O)C(C)(C)C)C2=O)c1` (centres undefined), the IC50 [1] is reported as 0.8 nM, the IC50 [2] is reported as 433 nM and the inhibition in vivo at 0.1 µmol/kg (Rattus norvegicus [4]) is reported as 58%.
`Cc1cccc(NC(=O)NC2N=C(c3ccncc3)c3ccccc3N(CC(=O)C3CCCC3)C2=O)c1` (centres undefined) was tested, and the IC50 [1] was 48 nM, the IC50 [2] was > 10000 nM and the inhibition in vivo at 0.1 µmol/kg (Rattus norvegicus [4]) was 15%.
`Cc1cccc(NC(=O)NC2N=C(c3cnc[nH]3)c3ccccc3N(CC(=O)C(C)(C)C)C2=O)c1` (centres undefined) was tested, and the IC50 [1] was 26.1 nM, the IC50 [2] was 232 nM and the inhibition in vivo at 0.1 µmol/kg (Rattus norvegicus [4]) was 25%.
Work on `Cc1cccc(NC(=O)NC2N=C(c3ccccn3)c3ccccc3N(CC(=O)c3ccccc3C)C2=O)c1` (centres undefined) yielded an IC50 [1] of 0.13 nM, an IC50 [2] of 980 nM and an ED50 (Rattus norvegicus [3]) of 0.0167 µmol/kg.
For `Cc1cccc(NC(=O)NC2N=C(c3ccccc3)c3ccccc3N(CC(=O)c3ccccc3C)C2=O)c1` (centres undefined), the IC50 [1] was 0.11 nM and the IC50 [2] was 146 nM.
For `Cc1cccc(NC(=O)NC2N=C(c3ccncc3)c3ccccc3N(CC(=O)c3ccccc3C)C2=O)c1` (centres undefined), the IC50 [1] was 18 nM, the IC50 [2] was 670 nM and the inhibition in vivo at 0.1 µmol/kg (Rattus norvegicus [4]) was 37%.
With `Cc1cccc(NC(=O)NC2N=C(c3ncc[nH]3)c3ccccc3N(CC(=O)C(C)(C)C)C2=O)c1` (centres undefined) the IC50 [1] was 8 nM, the IC50 [2] was 2610 nM and the inhibition in vivo at 0.1 µmol/kg (Rattus norvegicus [4]) was 14%.
With `Cc1cccc(NC(=O)NC2N=C(c3ccccn3)c3ccccc3N(CC(=O)C3CCCC3)C2=O)c1` (centres undefined) the IC50 [1] was 0.12 nM, the IC50 [2] was 2600 nM and the ED50 (Rattus norvegicus [3]) was 0.0189 µmol/kg.
`Cc1cccc(NCNC2N=C(c3ccn[nH]3)c3ccccc3N(CC(=O)C(C)(C)C)C2=O)c1` (centres undefined) was tested, and the IC50 [1] was > 100 nM, the IC50 [2] was 105 nM and the inhibition in vivo at 0.1 µmol/kg (Rattus norvegicus [4]) was 18%.
